Laboratory results reported in patent publication US20230382966A1, “NOVEL KLOTHO INTERACTION SITE IN THE C-TERMINUS OF FGF23” (INDIANA UNIVERSITY RESEARCH AND TECHNOLOGY CORPORATION, priority 2020, published 2023).
Entries after “also recorded” stand apart in the source; their conditions may differ. Bridges are numbered along the chain shown (N, C = ends). Roman numbers before positions name the chains, in order. Where no end group is shown, it is not given here.

How the values were obtained:
[1] = molecular target: T1, FGFR/KL-complex (Homo sapiens, UniProt Q9UEF7); test: FGF23-antagonism measured by relative p-Erk levels in 293/KL cells; format: cell-based; conditions: for IC50: p-Erk
T1 construct: expressed in transfected cells; host or cells: 293T HEK cells overexpressing human KL (293/KL)
T1 sequence (Q9UEF7 34-1012): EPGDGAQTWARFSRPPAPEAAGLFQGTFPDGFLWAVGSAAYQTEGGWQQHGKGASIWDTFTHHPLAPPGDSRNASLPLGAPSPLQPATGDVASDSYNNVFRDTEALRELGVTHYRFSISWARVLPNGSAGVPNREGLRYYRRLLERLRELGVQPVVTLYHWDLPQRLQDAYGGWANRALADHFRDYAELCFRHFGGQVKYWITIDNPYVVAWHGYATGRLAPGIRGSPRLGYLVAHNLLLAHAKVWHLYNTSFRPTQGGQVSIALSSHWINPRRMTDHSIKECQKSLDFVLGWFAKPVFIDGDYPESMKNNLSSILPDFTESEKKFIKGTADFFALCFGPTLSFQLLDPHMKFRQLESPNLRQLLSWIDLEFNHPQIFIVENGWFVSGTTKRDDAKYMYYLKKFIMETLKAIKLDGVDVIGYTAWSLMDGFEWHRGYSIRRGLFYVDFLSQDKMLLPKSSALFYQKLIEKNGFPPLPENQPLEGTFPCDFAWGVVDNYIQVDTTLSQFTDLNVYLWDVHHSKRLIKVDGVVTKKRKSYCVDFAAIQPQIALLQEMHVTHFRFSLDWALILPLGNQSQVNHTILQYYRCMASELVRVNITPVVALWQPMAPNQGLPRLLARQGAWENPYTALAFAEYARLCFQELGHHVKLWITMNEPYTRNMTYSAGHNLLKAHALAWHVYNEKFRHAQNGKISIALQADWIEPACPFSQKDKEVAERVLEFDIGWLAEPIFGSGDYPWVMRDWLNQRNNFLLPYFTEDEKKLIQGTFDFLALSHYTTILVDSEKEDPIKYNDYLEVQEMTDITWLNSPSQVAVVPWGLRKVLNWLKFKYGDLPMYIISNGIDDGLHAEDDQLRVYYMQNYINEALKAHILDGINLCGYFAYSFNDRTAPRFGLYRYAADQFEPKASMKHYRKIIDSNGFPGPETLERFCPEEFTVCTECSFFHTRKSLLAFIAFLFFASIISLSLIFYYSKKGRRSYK
Description: FIGS. 1A-1F Structure activity analysis among the two KL-interacting peptides C26 and C28. FIG. 1A provides a schematic representation of FGF23 showing the Amino terminal FGF23 core (amino acids 25-179) and the C-terminal portion that comprises two Klotho interaction sites “C26” (amino acids 180-205) and “C28” (amino acids 212-239); FIGS. 1B-1F are graphs presenting FGF23-antagonism measured by the relative p-Erk levels in 293/KL cells with increasing doses of the peptide antagonist. (FIG. 1B) compares C26 and C28; FIG. 1C is a graph showing the effect of the substitutions from C28 sequence into the C26 sequence on the peptide activity, comparing peptides C26(●), 1(▪), 2( ? ), 3(▴), and 4(○); FIG. 1D is a graph showing the effect of the substitutions from C28 sequence in the C26 sequence on the peptide activity, C28(●), 5(▪), 6( ? ), and 7(▴); FIGS. 1E & 1F are graphs showing the activity of shortened FGF23 C-terminal peptide antagonist in vitro. For FIG. 1E peptides C26(●), 8(▪), 9( ? ) are compared; For FIG. 1F peptides 6(●), 10(▪), 11( ? ), and 12(▴).
FIGS. 4A & 4B provide data relating to mutation of the C-terminal FGF23 peptides to assess their KL-interaction site by study of FGF23-activity antagonism in 293/KL cells. FGF23 C-terminal peptides tested for their ability to block FGF23-signaling measured by relative p-Erk levels are shown in FIG. 4A for peptides C26 (●), C28(▪), C26A1(T ? , FGF23^180-205, A^188), C28A2(▴, FGF23^212-239, A^222); and in FIG. 4B for peptides C72(●, FGF23^180-251), C72A1(▪, FGF23^180-251, A^188), C72 A2 ( ? , FGF23^180-251, A^222), C72A1A2(▴, FGF23^180-251, A^188,222). […]

[2] = tested on: FGFR/KL complex; test: FGF23-signaling activity (stimulation of Erk-phosphorylation) in 293/KL cells; format: cell-based, human
Procedure: (§1) FIGS. 5A-5D provide data relating to the activities of FGF23-analogs containing one or two active KL-interaction sites by in vitro and in vivo methods. […] FIGS. 5B-5D are scatter plots presenting an in vivo assessment of FGF23-activity in mice. WT mice were treated with 0.5 mg/kg body weight with either FGF23, FGF23 A^188, FGF23 A^222, FGF23 A^188,222, or vehicle, n=5 or 10/group, and post 3-hours the gene expression changes were studied by quantitative real time PCR for target genes, FIG. 5B represents measurement of Cyp24a1, FIG. 5C represents measurement of Cyp27b1, and FIG. 5D represents measurement of Egr1. The data is presented as a scatter plot where each dot represents one animal, mean ±SEM. One-way ANOVA with Tukey's comparison was employed for statistical analyses where***P<0.001 vs. vehicle; #P<0.05, ##P<0.01, ###P<0.001 vs FGF23; and $$$P<0.001 vs FGF23 A^188,222 was calculated.
Whether FGF23-based agonism can employ each of the two KL-interaction sites as witnessed in the C72 peptide antagonist was studied. To do so, a selective mutation at position Asp188 or Asp222 was made in the native FGF23. […] This is consistent with prior reports where C-terminal sequence deletion after residue 205 position had no apparent effect on cellular signaling (FIG. 5A, Table 3). […] Asp188 residue is purported to be singularly essential for KL-binding and FGF23 activity, and its importance was substantiated by the lack of antagonism when the C26 peptide was similarly mutated from Asp to Ala (FIG. 4A). […] To confirm that these observations were not resulting from unexpected changes in higher order structure that was not apparent in biosynthesis, purification, or formulation of the mutant proteins their biophysical integrity were directly assessed by thermal denaturation.
The N-terminal domain of the endocrine FGFs primarily determines the FGFR-activation while the C-terminal sequence guides the co-receptor specificity with a Klotho co-receptor, KL or KLB. The receptor complex specificity among the endocrine FGF-proteins can be modulated by altering their C-terminal domains. Consequently, two FGF21-23 chimeric protein analogs were prepared containing the FGF21 N-terminal core with its C-terminal KLB-binding peptide replaced with an FGF23 C-terminal peptide sequence constituted by C72 (FGF21-23 C72) or C26 (FGF21-23 C26) (Table 3).

[3] = tested on: FGFR/KL-downstream targets Cyp24a1, Cyp27b1 and Egr1; test: Mouse kidney gene expression after FGF23 protein analogs (quantitative real time PCR); format: in vivo; conditions: WT mice, 0.5 mg/kg, 3 hours
Procedure: as §1
To test whether C28 as the second KL-interaction site can promote FGF23 in vivo activity, the single site FGF23-analogs were assessed for their ability to alter kidney gene expression in normal mice. Four proteins (FGF23, FGF23 A188, FGF23 A222 or FGF23 A188, 222 analogs) were each dosed to mice 0.5 mg/kg and 3 hours later quantitative real time PCR was employed to assess kidney mRNA expression of the FGFR/KL-downstream targets Cyp24a1, Cyp27b1 and early growth response protein 1 (Egr1). […] This is not surprising since the optimal treatment time for Egrl modulation is as early as 1 hour for FGF-signaling measurements. The magnitude in upregulation of gene expression for Cyp24a1 was the highest, with twenty-fold induction by native FGF23 treatment (FIG. 5B). […] Similarly, the Egrl induction is reduced for FGF23 A188 and FGF23 A222 analogs as compared to native FGF23 (P<0.05, FIG. 5D), but no difference is observed among the analogs and FGF23 for Cyp27b1 (FIG. 5C).

[4] = Table 2, block of FGF23-signaling
[5] = Table 1, block of FGF23-signaling

I: SAEDNSPMASAPLGVVRPRARMTHAGGTGPEGC / II: SAEDNSPMASDPLGVVRPRARMTHAGGTGPEGC (disulfide I:33-II:33) [Peptide 22]
FGF23-antagonist activity (in words) [1]: reduced in potency relative to C72 and peptide 20

SAEDNSPMASDPLGVVRGGRVNTHAGGTGPEGCRPFAKFI [C40]
enhancement of antagonistic potency relative to C28 ([1]; fold): two to three-fold

SAEDDSERAPLNVLKPRARMTPAPASCSQELPSAEDNSPMASAPLGVVRGGRVNTHAGGTGPEGCRPFAKFI [C72 A1A2, FGF23^180-251, A^188,222]
FGF23-antagonist activity (in words) [1]: complete loss of activity

I: SAEDDSERDPLNVLKPRARMTPAPASGPEGC / II: SAEDDSERDPLNVLKPRARMTPAPASGPEGC (disulfide I:31-II:31) [Peptide 17]
enhancement of FGF23-antagonistic potency of dimer compared to corresponding monomers ([1]; fold): approximately twenty to fifty-fold

PMASDPLGVVRPRARM [Peptide 10]
IC50 [1, 4]: 3.8 ± 0.9 nM

SAEDDSERAPLNVLKPRARMTPAPASCSQELPSAEDNSPMASDPLGVVRGGRVNTHAGGTGPEGCRPFAKFI [C72 A1, FGF23^180-251, A^188]
IC50 [1, 5]: 24.5 ± 11.5 nM
reduction in inhibitory potency relative to C72 ([1]; fold): more than twenty-fold

I: SAEDNSPMASDPLGVVRGGRVNTHAGGTGPEGC / II: SAEDNSPMASDPLGVVRGGRVNTHAGGTGPEGC (disulfide I:33-II:33) [Peptide 18]
enhancement of FGF23-antagonistic potency of dimer compared to corresponding monomers ([1]; fold): approximately twenty to fifty-fold

SAEDDSERDPLNVLKPRARMTPAPASCSQELPSAEDNSPMASAPLGVVRGGRVNTHAGGTGPEGCRPFAKFI [C72 A2, FGF23^180-251, A^222]
IC50 [1, 5]: 33.1 ± 15.8 nM
reduction in inhibitory potency relative to C72 ([1]; fold): more than twenty-fold

ASDPLGVVRPRARM [Peptide 11]
IC50 [1, 4]: 17.1 ± 0.6 nM

DPLNVLKPRARM [Peptide 9]
IC50 [1, 4]: 542 ± 282 nM

I: SAEDNSPMASDPLGVVRPRARMTHAGGTGPEGC / II: SAEDNSPMASDPLGVVRPRARMTHAGGTGPEGC (disulfide I:33-II:33) [Peptide 20]
FGF23-antagonist activity (in words) [1]: equal to that of C72; also recorded: no greater potency than C72

ERDPLNVLKPRARM [Peptide 8]
IC50 [1, 4]: 97 ± 30.3 nM

DPLGVVRPRARM [Peptide 12]
IC50 [1, 4]: 70.9 ± 29.5 nM

I: SAEDNSPMASDPLGVVRGGRVNTHAGGTGPEGC / II: SAEDDSERDPLNVLKPRARMTPAPASGPEGC (disulfide I:33-II:31) [Peptide 19]
FGF23-antagonist activity (in words) [1]: indistinguishable from the activity of the two homodimers
enhancement of FGF23-antagonistic potency of dimer compared to corresponding monomers ([1]; fold): approximately twenty to fifty-fold

B1: FGF23 A^222: FGF23^25-240, A^222 (protein)
chain: YPNASPLLGSSWGGLIHLYTATARNSYHLQIHKNGHVDGAPHQTIYSALMIRSEDAGFVVITGVMSRRYLCMDFRGNIFGSHYFDPENCRFQHQTLENGYDVYHSPQYHFLVSLGRAKRAFLPGMNPPPYSQFLSRRNEIPLIHFNTPIPRRHTRSAEDDSERDPLNVLKPRARMTPAPASCSQELPSAEDNSPMASAPLGVVRGGRVNTHAGGTG
FGF23-type agonism / FGFR/KL activation (in words) [2]: comparable potency to native protein
EC50 ([2]; Table 3, p-Erk): 0.29 ± 0.12 nM
kidney Cyp24a1 mRNA expression vs vehicle [3]: significant elevation
kidney Cyp27b1 mRNA expression vs vehicle [3]: coordinate suppression
Egr1 induction as compared to native FGF23 ([3]; kidney): reduced
magnitude of Cyp24a1 effect as compared to native FGF23 ([3]; kidney): fractionally reduced

B2: FGF21: FGF21^29-209 (protein)
chain: HPIPDSSPLLQFGGQVRQRYLYTDDAQQTEAHLEIREDGTVGGAADQSPESLLQLKALKPGVIQILGVKTSRFLCQRPDGALYGSLHFDPEACSFRELLLEDGYNVYQSEAHGLPLHLPGNKSPHRDPAPRGPARFLPLPGLPPALPEPPGILAPQPPDVGSSDPLSMVGPSQGRSPSYAS
FGF23-type agonism / FGFR/KL activation (in words) [2]: unable to activate

B3: FGF23^180-251: SAEDD SER-- DPLNV LKPRA RMTPA PAS CSQELP SAEDNSPMASDPLGVVRGGRVNTHAGGT GPEGC RPFAKFI (peptide)
chain: SAEDDSERDPLNVLKPRARMTPAPASCSQELPSAEDNSPMASDPLGVVRGGRVNTHAGGTGPEGCRPFAKFI
IC50 [1, 5]: 1.2 nM
enhancement of antagonistic potency relative to C26 ([1]; fold): seventy
enhancement of antagonistic potency relative to C28 ([1]; fold): thirty-fold
